Measured values reported in patent US7138389B2, “Oral androgen therapy using modulators of testosterone bioavailability” (University of Washington, priority 2004, dated 2006).
Where two headings read alike, the source gives them in different places. Marks after values point to notes of the source that are not given here. Where a SMILES comes first, the peptide text is derived from it. [ ]: non-standard residue; d: D form. dPhe(4-NH2) = Nc1ccc(C[C@@H](N)C(=O)O)cc1; dPhe(4-Cl) = N[C@H](Cc1ccc(Cl)cc1)C(=O)O; Phe(4-NH2) = Nc1ccc(C[C@H](N)C(=O)O)cc1; d2Nal = N[C@H](Cc1ccc2ccccc2c1)C(=O)O; Lys(iPr) = CC(C)NCCCC[C@H](N)C(=O)O; d3Pal = N[C@H](Cc1cccnc1)C(=O)O

Columns and labels:
[1] = tested on: endogenous testosterone production; test: Suppression of endogenous testosterone production by GnRH antagonist acyline; format: in vivo, human
Protocol: (§1) The drug exposure period lasted 12 days (FIG. 6). […] One, two and three days after acyline administration, as per the protocol of FIG. 6, subjects drank 200, 400 or 800 mg of testosterone or testosterone enthanate in oil, mixed with 8 oz of whole milk. These doses were repeated days eight, nine and ten days after the acyline injection. […] For safety, subjects underwent daily testing of liver function (AST, bilirubin, alkaline phosphatase), kidney function (BUN, creatinine) and hematopoiesis (hemoglobin and hematocrit).
(§2) Total serum testosterone was measured by a radioimmunoassay (Diagnostic Products Corporation, Los Angeles, Calif.). […] The normal range was 8.7–33 nmol/L. DHT was measured using an RIA Kit (Diagnostic Systems Laboratory, Los Angeles, Calif.). The sensitivity of this assay was 0.043 nmol/L and the intra-assay variation for mid and low-range pools was 9.9% and 11%, with interassay coefficients of variations of 19 and 25%. […] The normal range was 3.2–47 nmol/L. The normal ranges for testosterone, DHT and SHBG were determined in our laboratory using serum samples obtained from 100 normal men aged 20–50 years.

[2] = set-up: species or system human; conditions: in vivo
Excerpt: The drug exposure period lasted 12 days (FIG. 6).

[3] = tested on: endogenous testosterone production; conditions: cited from earlier work
[4] = cited from earlier work
[5] = men receiving testosterone by intramuscular administration; cited from earlier work
5-α-reductase = conditions: cited from earlier work
[6] = in vivo; cited from earlier work
[7] = tested on: serum proteins (SHBG, albumin); conditions: cited from earlier work
[8] = Serum testosterone pharmacokinetics after single oral doses of testosterone or testosterone enanthate in oil with and without dutasteride (Example 2); conditions: for maximum concentration of testosterone versus normal range: normal range 8.7–33 nmol/L; for serum testosterone after oral administration in oil: 200, 400, 800 mg, all men; for Testosterone AUC (area under-the-curve): serum testosterone, mean ± SD
Protocol: (§3) Study Design: Participants were randomly assigned to one of two groups: 1) oral testosterone in sesame oil, or 2) oral testosterone enanthate in sesame oil (Delatestryl, BTG Pharmaceuticals, Iselin, N.J.) at a concentration of 200 mg/ml. A sample size of seven subjects per group was estimated to have an 80% power with an α of 0.05 to detect a 50% in the change in serum testosterone area-under-the curve between doses. The oral testosterone enanthate in sesame oil was manufactured by the compounding pharmacy at the University of Washington. Briefly, micronized testosterone (U.S.P. grade, Spectrum Quality Projects, Gardena, Calif., USA) was suspended at 100 mg/ml in sesame oil (N.F. grade, Spectrum Quality Projects, Gardena, Calif., USA), and mixed thoroughly on a magnetic stir plate to create a homogenous testosterone enanthate/sesame oil emulsion. The compounding pharmacist then drew up the emulsion into syringes at the desired dose levels (200, 400 and 800 mg). The dose of oral testosterone enanthate in sesame oil was normalized for the testosterone content, so that the subjects in the testosterone enanthate group (molecular weight 397) were administered 276, 554 and 1108 mg of testosterone enanthate, corresponding to 200, 400 and 800 mg of testosterone.
as §1, §2
Statistics: Hormone were log transformed prior to analysis. […] Changes between groups were analyzed by ANOVA. Statistical analyses were performed using STATA ([…], Tex., USA). Type I error was set at 0.05 for all analyses.

[9] = Serum DHT pharmacokinetics after single oral doses of testosterone or testosterone enanthate in oil with and without dutasteride (Example 2); conditions: 200, 400, 800 mg; all men
Protocol: as §3, with “The compounding pharmacist then drew up the emulsion into syringes at the desired dose levels (200, 400 and 800 mg). The dose of oral testosterone enanthate in sesame oil was normalized for the testosterone content, so that the subjects in the testosterone enanthate group (molecular weight 397) were administered 276, 554 and 1108 mg of testosterone enanthate, corresponding to 200, 400 and 800 mg of testosterone.” left out
as §2, with “Calif.).” for “Calif.). The sensitivity of this assay was 0.043 nmol/L and the intra-assay variation for mid and low-range pools was 9.9% and 11%, with interassay coefficients of variations of 19 and 25%.”
Statistics: Hormone were log transformed prior to analysis. […] Changes between groups were analyzed by ANOVA. […]

## CC(=O)Nc1ccc(C[C@H](NC(=O)[C@H](CO)NC(=O)[C@@H](Cc2cccnc2)NC(=O)[C@@H](Cc2ccc(Cl)cc2)NC(=O)[C@@H](Cc2ccc3ccccc3c2)NC(C)=O)C(=O)N[C@H](Cc2ccc(NC(C)=O)cc2)C(=O)N[C@@H](CC(C)C)C(=O)N[C@@H](CCCCNC(C)C)C(=O)N2CCC[C@H]2C(=O)N[C@H](C)C(N)=O)cc1 [acyline] (Ac-[d2Nal][dPhe(4-Cl)][d3Pal]S[Phe(4-NH2)](Ac)[dPhe(4-NH2)](Ac)L[Lys(iPr)]P[dA]-NH2)
[1]; all subjects, Day 0 DHT 1.6±0.6, P<0.05
  serum DHT 24 hours after acyline administration (day 1): 0.6 ± 0.2 nmol/L
[1]; all subjects, acyline 300 mcg/kg SQ, day zero 20.0±7.4, P<0.0001
  serum testosterone 24 hours after acyline administration (day one): 2.3 ± 0.5 nmol/L
[1]; testosterone enanthate group
  serum DHT 24-hours post acyline: 0.6 ± 0.2 nmol/L
  serum testosterone 24-hours post acyline: 2.3 ± 0.8 nmol/L
[1]; testosterone group
  serum DHT 24-hours post acyline: 0.5 ± 0.2 nmol/L
  serum testosterone 24-hours post acyline: 2.3 ± 0.7 nmol/L
[2]
  injection-site reaction: transient pruritis
[3]; previously shown (Herbst et al.)
  duration of suppression of endogenous testosterone production in men: 2 weeks
[3]; single injection 300 mcg/kg SQ
  duration of suppression of testosterone production in normal men: ≥ 15 days

## CCCCCCCCCCC(=O)O[C@H]1CC[C@H]2[C@@H]3CCC4=CC(=O)CC[C@]4(C)[C@H]3CC[C@]12C [Testosterone undecanoate]
[4]; oral (Bagchus et al.)
  effect of food intake on absorption: dramatically improved
[4]; oral
  serum DHT on oral TU therapy: well above the normal range
  serum testosterone on oral TU therapy: therapeutic increases

## CC(C)(C)NC(=O)[C@H]1CC[C@H]2[C@@H]3CC[C@H]4NC(=O)C=C[C@]4(C)[C@H]3CC[C@]12C [finasteride, (5α,17beta)-N-(1,1-dimethylethyl)-3-oxo-4-azaandrost-1-ene-17-carboxamide]
[5]
  levels of serum testosterone: without substantial effect
5-α-reductase; administration of finasteride
  reduction of prostate DHT levels: 90%
  reduction of serum DHT levels: 70%
5-α-reductase; men given finasteride (Gormley et al.)
  increase of testosterone levels: about 10%

## C[C@]12CC[C@H]3[C@@H](CCC4=CC(=O)CC[C@@]43C)[C@@H]1CC[C@@H]2O [Testosterone-only, testosterone]
[6]
  half-life of testosterone, reported values: 10 to 100 min
[7]
  blood testosterone bound to serum proteins: About 98%
  circulating plasma testosterone bound to sex hormone-binding globulin (SHBG): Approximately 40%
[7]; plasma
  circulating plasma testosterone unbound (free): 2%
[8]; 800 mg oral dose in oil
  maximum concentration of testosterone versus normal range: exceeding the normal range
[8]
  serum testosterone after oral administration in oil: significantly increased in all men in a dose-dependent fashion
[8]; single oral dose 200 mg in oil
  Testosterone AUC (area under-the-curve): 124 ± 28 nmol·h/L
[8]; single oral dose 200 mg in oil, listed as testosterone-alone
  Testosterone AUC (area under-the-curve): 124 ± 28 nmol·h/L
[8]; single oral dose 400 mg in oil
  Testosterone AUC (area under-the-curve): 208 ± 74^a nmol-hours/L
[8]; single oral dose 400 mg in oil, listed as testosterone-alone
  Testosterone AUC (area under-the-curve): 208 ± 74 nmol·h/L
[8]; single oral dose 800 mg in oil
  Testosterone AUC (area under-the-curve): 328 ± 72^a nmol-hours/L
[8]; single oral dose 800 mg in oil, listed as testosterone-alone
  Testosterone AUC (area under-the-curve): 328 ± 82 nmol·h/L
[9]
  serum DHT after oral administration in oil: significantly increased the serum DHT in all men in a dose-dependent fashion
[4]; 200 mg doses of oral testosterone, for up to eight hours
  effect on serum testosterone levels: elevate serum testosterone levels to the low normal range
[4]; oral unmodified testosterone at doses up to 100 mg, deficient men
  effect on serum testosterone levels: little effect

## CCCCCCC(=O)O[C@H]1CC[C@H]2[C@@H]3CCC4=CC(=O)CC[C@]4(C)[C@H]3CC[C@]12C [Testosterone Enanthate-only, testosterone enanthate]
[8]; 400 mg oral dose in oil
  maximum concentration of testosterone versus normal range: exceeding the normal range
[8]; 800 mg oral dose in oil
  maximum concentration of testosterone versus normal range: exceeding the normal range
[8]
  serum testosterone after oral administration in oil: significantly increased in all men in a dose-dependent fashion
[9]
  serum DHT after oral administration in oil: significantly increased the serum DHT in all men in a dose-dependent fashion
